Measurements published in patent publication US9884063B2, “Amido-substituted azole compounds” (Bayer Pharma Aktiengesellschaft, priority 2014, dated 2018).
Where a name gives a salt, the structure may show the parent alone.

Legend:
TNKS1 = target: T1, TNKS1 (Homo sapiens, UniProt O95271); test: Modified TNKS1 Assay 3 (BPS kit #80573, biotin-NAD+, 96 well); format: biochemical; conditions: human TNKS1, BPS kit #80573, 96 well
T1 sequence (O95271 1-1327): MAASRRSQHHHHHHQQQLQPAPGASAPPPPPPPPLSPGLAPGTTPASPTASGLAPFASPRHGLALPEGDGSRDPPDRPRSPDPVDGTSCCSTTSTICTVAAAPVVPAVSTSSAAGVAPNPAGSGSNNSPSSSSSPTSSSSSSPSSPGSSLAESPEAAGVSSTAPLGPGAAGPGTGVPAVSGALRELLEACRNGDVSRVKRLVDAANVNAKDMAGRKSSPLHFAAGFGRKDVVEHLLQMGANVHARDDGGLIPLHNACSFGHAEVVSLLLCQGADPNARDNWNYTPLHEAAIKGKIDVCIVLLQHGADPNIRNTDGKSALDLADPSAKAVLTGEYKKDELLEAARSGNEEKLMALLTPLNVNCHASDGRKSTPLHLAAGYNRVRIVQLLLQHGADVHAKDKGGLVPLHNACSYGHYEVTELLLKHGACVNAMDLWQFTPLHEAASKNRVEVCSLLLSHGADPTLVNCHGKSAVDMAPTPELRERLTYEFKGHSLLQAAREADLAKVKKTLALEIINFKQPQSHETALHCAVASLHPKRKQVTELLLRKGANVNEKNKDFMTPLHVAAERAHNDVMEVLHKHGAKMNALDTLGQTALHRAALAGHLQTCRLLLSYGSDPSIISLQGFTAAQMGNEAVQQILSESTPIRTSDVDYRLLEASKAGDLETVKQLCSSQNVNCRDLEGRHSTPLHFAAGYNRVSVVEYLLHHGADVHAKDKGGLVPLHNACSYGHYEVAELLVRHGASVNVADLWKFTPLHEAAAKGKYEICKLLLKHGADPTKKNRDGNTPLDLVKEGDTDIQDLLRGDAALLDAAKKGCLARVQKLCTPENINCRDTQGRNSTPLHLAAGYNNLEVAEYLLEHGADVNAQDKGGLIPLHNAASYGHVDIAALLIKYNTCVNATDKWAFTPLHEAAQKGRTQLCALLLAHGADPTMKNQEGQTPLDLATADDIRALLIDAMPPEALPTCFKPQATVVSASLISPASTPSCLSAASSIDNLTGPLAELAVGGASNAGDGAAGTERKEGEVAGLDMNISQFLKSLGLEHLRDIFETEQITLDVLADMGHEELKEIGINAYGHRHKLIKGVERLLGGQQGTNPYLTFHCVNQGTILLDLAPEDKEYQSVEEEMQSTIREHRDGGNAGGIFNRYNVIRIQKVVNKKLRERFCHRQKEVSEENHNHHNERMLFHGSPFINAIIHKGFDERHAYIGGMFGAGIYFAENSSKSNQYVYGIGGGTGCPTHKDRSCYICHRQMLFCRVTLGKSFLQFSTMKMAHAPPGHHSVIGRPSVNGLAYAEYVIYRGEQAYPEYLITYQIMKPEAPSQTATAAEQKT
Procedure: The potency of the compounds against human TNKS1 according to the invention was assessed using a commercially available biotin/streptavidin binding assay kits from BPS Bioscience, San Diego, USA (Catalog #80573 for TNKS1). The incorporation of a biotin-labeled NAD+ during the […] catalyzed ribosylation of a suitable protein substrate was detected using with a streptavidin-HRP coupled chemi-luminescent readout. The intensity of the readout signal is proportional to the incorporated NAD^+. Inhibition of TNKS1 leads to a decreased incorporation of NAD^+ and consequently to a lower readout signal intensity in the corresponding TNKS1 assays. The concentration of a test compound that inhibits the enzyme activity by 50% (corresponds to half of the normed readout signal intensity) is reported as IC50. The assay was conducted in a 96 well MTP format according to the manufacturer's protocol and using a BMG Pherastar MTP reader [BMG-Labtech, Offenburg, Germany].

[1] = test system: wildtype Wnt signaling cascade; test: HEK293 TOP Assay (Super TopFlash luciferase reporter, Wnt-3a stimulated); format: cell-based; conditions: Homo sapiens, HEK293 TOP reporter cell line, Wnt-3a at EC50, 16 hours incubation, compound dilution series 50 μM to 15 nM
How it was run: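 Compounds (50 μM down to 15 nM, 3.16-fold steps, in CAFTY buffer pH 7.4, 2 mM Ca2+, 0.01% BSA) tested in parallel on TOP and FOP HEK293 reporter lines to define selective wildtype Wnt inhibition. Pathway driven by recombinant human Wnt-3a applied at 2500–5 ng/ml in two-fold dilutions.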

[2] = test system: HEK293 FOP control reporter cell line; test: HEK293 FOP Assay (FOP control vector luciferase reporter); format: cell-based; conditions: Homo sapiens, HEK293 FOP control reporter cell line, 16 hours incubation, compound dilution series 50 μM to 15 nM
How it was run: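 Compound series 50 μM to 15 nM, 3.16-fold steps, were diluted in CAFTY buffer (pH 7.4, 2 mM Ca2+, 0.01% BSA) and tested alongside the TOP reporter line. Human Wnt-3a was added at 2500–5 ng/ml in two-fold steps. The control HEK293 line stably holds an FOP vector whose TCF elements are randomized and non-functional.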

| SMILES | IC50 (TNKS1) [nM] | IC50 ([1]; HEK293, 16 h) [nM] | IC50 [2] [nM] | IC50 [1] [nM] | IC50 ([2]; HEK293, 16 h) [nM] |
| --- | --- | --- | --- | --- | --- |
| CC(C)(C)NC(=O)c1[nH]cnc1C(=O)Nc1ccc(NC(=O)c2ccc(F)cc2Cl)cc1 [Example 133, N^5-tert-butyl-N^4-{4-[(2-chloro-4-fluorobenzoyl)amino]phenyl}-1H-imidazole-4,5-dicarboxamide] | 200 | 430 | 8700 | – | – |
| CN1CCCCC1CNC(=O)c1nc[nH]c1C(=O)Nc1ccc(NC(=O)c2ccc(F)cc2Cl)cc1 (stereo not drawn) [Example 410, N^5-{4-[(2-chloro-4-fluorobenzoyl)amino]phenyl}-N^4-[(1-methylpiperidin-2-yl)methyl]-1H-imidazole-4,5-dicarboxamide] | 90 | 110 | 18000 | – | – |
| CCN(CC)CCCNC(=O)c1nc[nH]c1C(=O)Nc1ccc(NC(=O)c2ccc(F)cc2Cl)cc1 [Example 388, N^5-{4-[(2-chloro-4-fluorobenzoyl)amino]phenyl}-N^4-[3-(diethylamino)propyl]-1H-imidazole-4,5-dicarboxamide] | 30 | 440 | 17000 | – | – |
| O=C(Nc1ccc(NC(=O)c2nc[nH]c2C(=O)NCCCN2CCCC(O)C2)cc1)c1ccc(F)cc1Cl (stereo not drawn) [Example 273, N^4-{4-[(2-chloro-4-fluorobenzoyl)amino]phenyl}-N^5-[3-(3-hydroxypiperidin-1-yl)propyl]-1H-imidazole-4,5-dicarboxamide] | 30 | 1550 | 21000 | – | – |
| O=C(Nc1ccc(NC(=O)c2[nH]cnc2C(=O)NCCN2CCCCC2)cc1)c1ccc(F)cc1Cl [Example 127, N^5-{4-[(2-chloro-4-fluorobenzoyl)amino]phenyl}-N^4-[2-(piperidin-1-yl)ethyl]-1H-imidazole-4,5-dicarboxamide hydrochloride] | 2 | – | – | 10 | 50000 |
| CN1CCC(NC(=O)c2nc[nH]c2C(=O)Nc2ccc(NC(=O)c3ccc(F)cc3Cl)cc2)CC1 [Example 414, N^5-{4-[(2-chloro-4-fluorobenzoyl)amino]phenyl}-N^4-(1-methylpiperidin-4-yl)-1H-imidazole-4,5-dicarboxamide] | 50 | 270 | 33000 | – | – |
| CN(C)CCNC(=O)c1nc[nH]c1C(=O)Nc1ccc(NC(=O)c2ccc(F)cc2Cl)nc1 [Example 109, N^5-{6-[(2-chloro-4-fluorobenzoyl)amino]pyridin-3-yl}-N^4-[2-(dimethylamino)ethyl]-1H-imidazole-4,5-dicarboxamide] | 1 | 140 | 43000 | – | – |
| CC(C)(N)CCNC(=O)c1[nH]cnc1C(=O)Nc1ccc(NC(=O)c2ccccc2Cl)cc1 [Example 283, N^5-(3-amino-3-methylbutyl)-N^4-{4-[(2-chlorobenzoyl)amino]phenyl}-1H-imidazole-4,5-dicarboxamide hydrochloride salt] | 110 | – | – | 840 | 50000 |
| CC1CCCC(C)N1CCNC(=O)c1nc[nH]c1C(=O)Nc1ccc(NC(=O)c2ccc(F)cc2Cl)cc1 (stereo not drawn) [Example 401, N^5-{4-[(2-chloro-4-fluorobenzoyl)amino]phenyl}-N^4-[2-(2,6-dimethylpiperidin-1-yl)ethyl]-1H-imidazole-4,5-dicarboxamide] | 180 | 330 | 21000 | – | – |
| O=C(Nc1ccc(NC(=O)c2[nH]cnc2C(=O)NCCCCCN2CCCC2)cc1)c1ccc(F)cc1Cl [Example 406, N^5-{4-[(2-chloro-4-fluorobenzoyl)amino]phenyl}-N^4-[5-(pyrrolidin-1-yl)pentyl]-1H-imidazole-4,5-dicarboxamide] | 70 | 350 | 26000 | – | – |
| CCN(CC)CCNC(=O)c1nc[nH]c1C(=O)Nc1ccc(NC(=O)c2ccc(F)cc2Cl)cc1 [Example 382, N^5-{4-[(2-chloro-4-fluorobenzoyl)amino]phenyl}-N^4-[2-(diethylamino)ethyl]-1H-imidazole-4,5-dicarboxamide] | 20 | 120 | – | – | – |
| CN(C)C(C)(C)CNC(=O)c1nc[nH]c1C(=O)Nc1ccc(NC(=O)c2ccc(F)cc2Cl)cc1 [Example 412, N^5-{4-[(2-chloro-4-fluorobenzoyl)amino]phenyl}-N^4-[2-(dimethylamino)-2-methylpropyl]-1H-imidazole-4,5-dicarboxamide] | 30 | 140 | – | – | – |
| CN1CC2(C1)CN(C(=O)c1nc[nH]c1C(=O)Nc1ccc(NC(=O)c3cc(F)c(F)cc3Cl)cc1)C2 [Example 50, N N-{4-[(2-chloro-4,5-difluorobenzoyl)amino]phenyl}-4-[(6-methyl-2,6-diazaspiro[3.3]hept-2-yl)carbonyl]-1H-imidazole-5-carboxamide] | 130 | 120 | 13000 | – | – |
| CCN1CCC(CNC(=O)c2nc[nH]c2C(=O)Nc2ccc(NC(=O)c3ccc(F)cc3Cl)cc2)CC1 [Example 409, N^5-{4-[(2-chloro-4-fluorobenzoyl)amino]phenyl}-N^4-[(1-ethylpiperidin-4-yl)methyl]-1H-imidazole-4,5-dicarboxamide] | 80 | 190 | 32000 | – | – |
| CCN1CCC(CNC(=O)c2nc[nH]c2C(=O)Nc2ccc(NC(=O)c3ccc(F)cc3Cl)cc2)C1 (stereo not drawn) [Example 411, N^5-{4-[(2-chloro-4-fluorobenzoyl)amino]phenyl}-N^4-[(1-ethylpyrrolidin-3-yl)methyl]-1H-imidazole-4,5-dicarboxamide] | 70 | 290 | – | – | – |
| O=C(Nc1ccc(NC(=O)c2[nH]cnc2C(=O)NCCN2CCS(=O)(=O)CC2)cc1)c1ccc(F)cc1Cl [Example 402, N^5-{4-[(2-chloro-4-fluorobenzoyl)amino]phenyl}-N^4-[2-(1,1-dioxidothiomorpholin-4-yl)ethyl]-1H-imidazole-4,5-dicarboxamide] | 260 | 170 | – | – | – |
| CN1CCC(CNC(=O)c2nc[nH]c2C(=O)Nc2ccc(NC(=O)c3ccc(F)cc3Cl)cc2)CC1 [Example 408, N^5-{4-[(2-chloro-4-fluorobenzoyl)amino]phenyl}-N^4-[(1-methylpiperidin-4-yl)methyl]-1H-imidazole-4,5-dicarboxamide] | 80 | 300 | – | – | – |
| O=C(Nc1ccc(NC(=O)c2[nH]cnc2C(=O)NCCN2CCCCC2)cn1)c1ccccc1Cl [Example 114, N^5-{6-[(2-chlorobenzoyl)amino]pyridin-3-yl}-N^4-[2-(piperidin-1-yl)ethyl]-1H-imidazole-4,5-dicarboxamide] | < 0.5 | 70 | – | – | – |
